“Also recorded” adds a separate entry of the source.
How the values were obtained:
DNA = DNA binding by displacement of ethidium bromide from DNA; conditions: EtBr replacement assay; 192 at 0, 50, 100 μM
Procedure: Candidate ligase inhibitors identified by CADD were assayed for their ability to inhibit hLigI and T4 DNA ligase using a high-throughput, fluorescence energy transfer-based DNA joining assay (22). Duplicate reactions (30 μL) containing 10 pmol of nicked DNA substrate and either 0.25 pmol of hLigI or 10 units of T4 DNA ligase were incubated in the presence or absence of 100 μmol/L of the putative inhibitor. DNA binding by the candidate DNA ligase inhibitors was measured by displacement of ethidium bromide from DNA as previously described (30).

hLigI = biological target: T1, hLigI (Homo sapiens, UniProt P18858); experiment: High-throughput fluorescence-based DNA joining (ligation) assay; type: biochemical; conditions: in vitro screen, 100 μmol/L; the 15 hLigI inhibitors inhibited by >50%
T1 construct: made in house
T1 sequence (P18858 whole entry): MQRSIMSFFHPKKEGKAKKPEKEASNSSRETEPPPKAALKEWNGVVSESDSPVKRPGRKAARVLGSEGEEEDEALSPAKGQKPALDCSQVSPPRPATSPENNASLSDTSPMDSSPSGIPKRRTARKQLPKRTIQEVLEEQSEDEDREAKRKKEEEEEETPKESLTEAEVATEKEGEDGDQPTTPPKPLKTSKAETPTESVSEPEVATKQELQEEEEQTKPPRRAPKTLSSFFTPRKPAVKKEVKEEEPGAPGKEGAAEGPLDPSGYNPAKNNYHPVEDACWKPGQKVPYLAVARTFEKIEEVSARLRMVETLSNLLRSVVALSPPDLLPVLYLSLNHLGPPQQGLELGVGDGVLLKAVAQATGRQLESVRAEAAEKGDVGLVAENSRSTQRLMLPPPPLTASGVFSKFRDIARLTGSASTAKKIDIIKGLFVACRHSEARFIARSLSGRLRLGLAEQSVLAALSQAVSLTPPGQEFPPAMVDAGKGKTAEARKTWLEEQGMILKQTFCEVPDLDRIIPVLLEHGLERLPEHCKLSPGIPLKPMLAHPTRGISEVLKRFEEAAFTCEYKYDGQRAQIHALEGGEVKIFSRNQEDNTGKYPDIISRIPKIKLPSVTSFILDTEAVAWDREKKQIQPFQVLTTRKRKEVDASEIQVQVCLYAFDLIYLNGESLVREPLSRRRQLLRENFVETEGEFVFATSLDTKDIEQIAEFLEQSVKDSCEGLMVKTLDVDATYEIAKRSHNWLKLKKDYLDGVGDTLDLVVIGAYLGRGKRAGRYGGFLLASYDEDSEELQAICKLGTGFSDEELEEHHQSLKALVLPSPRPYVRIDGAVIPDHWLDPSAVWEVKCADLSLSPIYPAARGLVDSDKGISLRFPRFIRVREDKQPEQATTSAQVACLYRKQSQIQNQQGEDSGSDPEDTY
In short: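 Nicked DNA substrate (10 pmol) was incubated with 0.25 pmol hLigI, with or without 100 μmol/L test compound, in duplicate. Afterwards the DNA was denatured and renatured with a 20-fold excess of unmodified oligonucleotide. Ligation forms an AF488/BHQ1 hairpin, read as reduced fluorescence at 518 nm.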

HCT116 cells = experiment: Cell proliferation screen (SYBR Green, Biomek FX); type: cell-based, human; conditions: 50 μM; percentage of values obtained with DMSO alone
Procedure: The ability of the compounds identified by CADD to inhibit proliferation of normal mammary epithelial MCF10A cells and colon carcinoma HCT116 cells was determined using a Biomek FX Laboratory Automation Workstation (Beckman Coulter, Inc., Fullerton, Calif.). On day 0, 20 μl of complete medium containing the appropriate number of cells (150-300) was plated per well of a 384-well tissue plate (Fisher Scientific, Hampton, N.H.) and incubated overnight at 37° C. with 5% CO2 and 90% humidity. Next day, day 1, compounds were prepared by serial dilution with complete medium to yield the concentration 100 μM, and 20 μl was added to each well containing 20 μl of medium and cells yielding the final concentration 50 μM in 40 μl volume. Plates were incubated for additional 3 days (days-2-5) until control cells (0.5% DMSO) reached ˜70-80% confluency. On day 6, 40 μl of lysis/detection solution containing 1.2% Igepal CA-630 (Sigma) and a 1:1000 dilution of SYBR Green I nucleic acid stain (Molecular Probes, Eugene, Oreg.) was added to each well. Following an overnight incubation at 37° C., total fluorescence was measured using a Fluorostar Galaxy plate reader with a 485 nm excitation filter and 520 nm emission filter set (BMG Labtech, Inc., Durham, N.C.). Data was exported to a custom program that determined growth inhibition by dividing each individual fluorescence value by the average of fluorescence values obtained with cells treated with DMSO alone.
The 192 human DNA ligase inhibitors were screened in parallel for effects on proliferation and the ability to potentiate the effects of several DNA damaging agents using two cell human lines, a colon cancer line HCT116 and a normal breast epithelial cell line MCF10A using a Biomek FX Laboratory Automation Workstation as described (23). The DNA damaging agents used, methyl methanesulfonate (MMS), camptothecin, cis-platinum, 3 aminobenzamide and ionizing radiation, are representatives of classes of agents used to treat cancer. Briefly, HCT116 and MCF10A cells were plated in 96 well plates such that the cultures were about 80% confluent after 5 days incubation. Compounds were added to the cultures at either 15 μM or 50 μM 1 day after plating. After incubation for 3 days, cell lysed in a solution containing 1.2% Igepal CA-630 and SYBR green that stains DNA (1:1000, Molecular Probes, Eugene, Oreg.). Subsequently, fluorescence was measured per well. The studies with DNA damaging agents were performed as follows. […] For ionizing radiation, cells were pre-incubated with the compounds at 50 μM for 1 hour prior to exposure to 2 gray of ionizing radiation. Cultures were incubated for 3 days and then treated as above.

T4 DNA ligase = biological target: T2, T4 DNA ligase (Enterobacteria phage T4, UniProt P00970); experiment: High-throughput fluorescence-based DNA joining assay, non-specific inhibitor control; type: biochemical, bacteriophage T4; conditions: in vitro screen, 100 μmol/L
T2 construct: purchased NEB
T2 sequence (P00970 1-487): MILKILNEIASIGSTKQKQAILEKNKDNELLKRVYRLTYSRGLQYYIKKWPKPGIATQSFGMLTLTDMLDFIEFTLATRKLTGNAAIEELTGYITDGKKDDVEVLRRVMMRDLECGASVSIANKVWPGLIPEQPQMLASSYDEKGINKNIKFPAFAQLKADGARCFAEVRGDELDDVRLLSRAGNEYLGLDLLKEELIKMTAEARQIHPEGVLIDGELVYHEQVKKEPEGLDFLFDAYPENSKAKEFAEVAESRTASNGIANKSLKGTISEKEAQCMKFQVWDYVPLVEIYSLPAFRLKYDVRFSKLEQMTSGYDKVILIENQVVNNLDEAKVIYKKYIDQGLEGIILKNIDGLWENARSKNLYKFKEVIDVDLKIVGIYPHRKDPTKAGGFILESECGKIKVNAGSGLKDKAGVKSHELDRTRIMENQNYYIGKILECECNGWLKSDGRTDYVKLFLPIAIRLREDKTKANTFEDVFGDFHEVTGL
In short: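 This counter-screen used a FRET-based DNA joining assay. Duplicate reactions held 10 pmol nicked DNA substrate and 10 units T4 DNA ligase, with or without 100 μmol/L compound. T4 ligase lacks the DNA-binding domain targeted in silico, so compounds inhibiting it were flagged as non-specific, likely DNA-binding.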

O=S(=O)(O)N=Nc1ccc2c(c1)[nH]c1ccccc12 [Compound 192]
DNA binding of compound (effect on DNA binding by ethidium bromide) (DNA): reduced DNA binding of the DNA intercalating agent ethidium bromide; also recorded: EtBr is replaced | inhibition of hLigI (DNA ligase I), in words (hLigI): inhibited hLigI; also recorded: inhibits both hLigI and T4 DNA ligase | Growth_Inh % (50 μM) HCT116 (HCT116 cells): 70% | inhibition of T4 DNA ligase, in words (T4 DNA ligase): inhibits both hLigI and T4 DNA ligase
